Literature values as cited in US20170135934A1, “Mouth Rinse for Prevention of Periodontal Disease” (priority 2015, published 2017).
Like-named read-outs stand apart in the source and are kept apart here. Residues, ends and D or L forms follow the SMILES beside them.

Key:
[1] = healthy volunteers; for urinary losses of dipeptides: continuous infusion; for side effects: continuous infusion of supplemented amino acid solution
[2] = patients, TPN over 5 days
[3] = test system: intracellular glutamine pool; details: intravenous supply following cholecystectomy
[4] = test system: biopsies from normal human ileum, proximal colon and rectosigmoid colon; details: compared with saline
[5] = test system: intestinal epithelial cell; details: heat shock at 43 degrees C.; concentrations higher than 1 mM
rat lymphocytes = details: glutamine added to the medium

Row | SMILES | urinary losses of dipeptides [1] | side effects [1] | peptide in plasma [2] | side effects [2] | intracellular glutamine pool preserved [3] | crypt cell proliferation [4] | percentage of floating cells [5] | proliferation of rat lymphocytes (radioactive thymidine) (rat lymphocytes)
1 | NCC(=O)N[C@@H](CCC(N)=O)C(=O)O [GlyGln, glycyl-L glutamine, reference compound] (H-Gly-Gln-OH) | about 1 % of the given dose | not accompanied by any side effects |  |  |  |  |  | 
2 | C[C@H](N)C(=O)N[C@@H](CCC(N)=O)C(=O)O [AlaGln, L-Alanyl-L-gutamine] (H-Ala-Gln-OH) | about 1 % of the given dose | not accompanied by any side effects | not detectable | free of any side effects | 91 % of postoperative value | equally stimulated crypt cell proliferation |  | 
3 | NC(=O)CC[C@H](N)C(=O)O [glutamine] |  |  |  |  |  | equally stimulated crypt cell proliferation | dose dependent decrease | four-fold
